Data taken from US9034899B2, “Aryl, heteroaryl, and heterocycle substituted tetrahydroisoquinolines and use thereof” (Albany Molecular Research, Inc., priority 2009, dated 2015).
pIC50: −log10 of the molar value.

How the values were obtained:
[1] = tested on: Male Swiss Webster mice; assay: Mouse tail suspension assay; type: in vivo; conditions: mouse tail suspension study, acute administration
Protocol: Male Swiss Webster mice were housed 3-4 per cage in rooms maintained at a constant temperature (21-23° C.) and humidity (50±10%) on a 12-hour light/dark cycle. Animals had ad libitum access to water and food throughout studies. On the day of testing, they were brought into the testing room and allowed to acclimate for one hour.
To begin testing, the tail was attached to a piece of tape which ias then attached to a hook on the ceiling of a sound-attenuated chamber. Immobility was automatically recorded using the Med Associates software. Compounds were administered acutely at a fixed pretreatment interval before session.

[2] = tested on: SERT; assay: Occupancy assay, ex vivo binding in brain tissue, SERT; conditions: dose 1 mg/kg, time point 3 h
Text: (§1) The general procedure for brain tissue collection and transporter occupancy assessment is briefly described as follows. Mice were sacrificed by asphyxiation in CO2, rats by decapitation and dogs by IV injection of euthanasia solution. For mice and rats, after the brains were removed from the skull, the forebrain tissue (removal of the brainstem and cerebellum) was used for SERT, NET, and DAT occupancy assessment. In dogs, the striatum was dissected for DAT occupancy and the remaining forebrain tissue (without the striatum, brainstem, and cerebellum) was used for SERT and NET occupancy assessment. The brain tissues were frozen in chilled isopentane and stored at −80° C. until homogenization.
(§2) The brain tissues were thawed and then homogenized using a polytron homogenizer (Kinematica). Sample aliquots were frozen immediately and stored at −80° C. Protein content was measured for each sample using a Coomassie protein assay kit (Pierce).
(§3) On the day of ex vivo binding for occupancy assessment, frozen sample aliquots were thawed and needle homogenized, and 100 μg of the tissue was incubated for SERT, NET, and DAT binding under assay conditions summarized in Table 2. After incubation, the reactions were terminated by the addition of ice-cold assay buffer and rapid filtration through a Brandel Cell Harvester using FPXLR-196 filters. The filters were washed twice with ice-cold incubation buffer, punched into a clear plate prior to the addition of 200 ul scintillation fluid per well. Radioligand was measured using a Wallac Microbeta liquid scintillation counter.
The specific binding was calculated by subtracting the value of the non-specific binding from that of the total binding in each sample. The percent occupancy was calculated as (1−specific binding in drug treated/specific binding in vehicle treated)×100%. For estimation of in vivo occupancy EC50 (total plasma concentration of compound producing 50% occupancy), plots of occupancy values versus plasma concentrations were fitted to a one-site binding model using nonlinear regression according to the following equation: % Occupancy=Emax*C/(EC50+C) where Emax is the maximal specific binding, C is the drug concentration, and EC50 is the total plasma concentration required for 50% binding site occupancy. Nonlinear regression was performed using GraphPad Prism version 3.00 (GraphPad Software, San Diego, Calif.).

[3] = tested on: DAT; assay: Occupancy assay, ex vivo binding in brain tissue, DAT; conditions: dose 1 mg/kg, time point 3 h
Text: as §1, §2
as §3, with “After incubation, the reactions were terminated by the addition of ice-cold assay buffer and rapid filtration through a Brandel Cell Harvester using FPXLR-196 filters.” left out
(§4) The specific binding was calculated by subtracting the value of the non-specific binding from that of the total binding in each sample. The percent occupancy was calculated as (1−specific binding in drug treated/specific binding in vehicle treated)×100%. […] Nonlinear regression was performed using GraphPad Prism version 3.00 (GraphPad Software, San Diego, Calif.).

[4] = tested on: NET; assay: Occupancy assay, ex vivo binding in brain tissue, NET; conditions: dose 1 mg/kg, time point 3 h
Text: as §1, §2
as §3, with “After incubation, the reactions were terminated by the addition of ice-cold assay buffer and rapid filtration through a Brandel Cell Harvester using FPXLR-196 filters.” left out
as §4

[5] = molecular target: hDAT (Homo sapiens (Human), UniProt Q01959); assay: DAT radioligand binding assay ([125I]RTI-55, HEK-293 membranes); conditions: (+)-enantiomers; read-out: DAT IC50
Protocol: (§5) Recombinant HEK-293 cells expressing either the hSERT, hDAT, or hNET proteins were harvested from T-175 flasks as follows. The medium was removed from the flasks and the cells rinsed with HBSS without Ca and without Mg. The cells were then incubated for 5-10 minutes in 10 mM Tris-Cl, pH 7.5, 5 mM EDTA before the cells were lifted with a combination of pipetting and scraping, as needed. The cell suspension was collected into centrifuge bottles and homogenized for 30 seconds with a Polytron homogenizer. The suspension was centrifuged for 30 minutes at 32,000×g, 4° C. The supernatant was decanted and the pellet resuspended and homogenized in 50 mM Tris-Cl, pH 7.5, 1 mM EDTA for 10 seconds. The suspension was then centrifuged again for 30 minutes at 32,000×g, 4° C. The supernatant was decanted and the pellet resuspended in 50 mM Tris-Cl, pH 7.5, 1 mM EDTA and briefly homogenized. A Bradford assay (Bio-rad) was performed and the membrane preparation diluted to 2 mg/ml with 50 mM Tris-Cl, pH 7.5, 1 mM EDTA. Aliquots were prepared, and then frozen and stored at −80° C.
Compounds were dissolved in 100% DMSO at a concentration 100 times the desired highest assay concentration, serially diluted 1:3 in 100% DMSO, and 0.4 μl/well of each solution was dispensed to a Nunc polypropylene, round bottom, 384-well plate. 100% inhibition is defined with 0.4 μl/well of 1 mM GBR-12935 dissolved in DMSO. 20 ul/well of a 2× membrane preparation (12.5 μg/ml in 30 mM sodium phosphate buffer, pH 7.9 at 4° C.) and 20 μl/well of a 2× radioligand solution ([…] [^125I]RTI-55 in 30 mM sodium phosphate buffer, pH 7.9 at 4° C.) were added to the well and the reaction incubated for 1 hour at room temperature. The contents of the assay plate were then transferred to a Millipore MultiscreenHTS GF/B filter plate which was pretreated with 0.5% PEI for at least one hour. The plate was vacuum-filtered and washed with 7 washes of 100 μl/well 50 mM Tris-Cl, pH 7.5, 120 mM NaCl, 5 mM KCl chilled to 4° C. The filtration and washing were completed in less than 90 seconds. The plates were air-dried overnight, 12 μl/well of MicroScint scintillation fluid added, and the plates counted in a Trilux.
(§6) The raw data was normalized to percent inhibition using control wells defining 0% (DMSO only) and 100% (selective inhibitor) inhibition which were run on each plate. Each plate was run in triplicate, and the concentration response curve thus generated was fit using the four-parameter dose response equation, Y=Bottom+(Top-Bottom)/(1+10^((LogIC50−X)*HillSlope)) in order to determine the IC50 value for each compound. The radioligand concentration chosen for each assay corresponds to the Kd concentration determined through saturation binding analysis for each assay.

[6] = molecular target: hNET (Homo sapiens (Human), UniProt P23975); assay: NET radioligand binding assay ([3H]nisoxetine, HEK-293 membranes); conditions: (+)-enantiomers
Protocol: as §5
(§7) Compounds were dissolved in 100% DMSO at a concentration 100 times the desired highest assay concentration, serially diluted 1:3 in 100% DMSO, and 1.0 μl/well of each solution was dispensed to a Nunc polypropylene, round bottom, 384-well plate. 100% inhibition is defined with 1.0 μl/well of 10 mM desipramine dissolved in DMSO. 50 μl/well of a 2× membrane preparation (0.4 mg/ml in 50 mM Tris-Cl, pH 7.5, 120 mM NaCl, 5 mM KCl) and 50 μl/well of a 2× radioligand solution (4 nM [^3H]nisoxetine in 50 mM Tris-Cl, pH 7.5, 120 mM NaCl, 5 mM KCl) were added to the well and the reaction incubated for 1 hour at room temperature. The contents of the assay plate were then transferred to a Millipore MultiscreenHTS GF/B filter plate which was pretreated with 0.5% PEI for at least one hour. The plate was vacuum filtered and washed with 7 washes of 100 μl/well 50 mM Tris-Cl, pH 7.5, 120 mM NaCl, 5 mM KCl chilled to 4° C. The filtration and washing were completed in less than 90 seconds. The plates were air-dried overnight, 12 μl/well of MicroScint scintillation fluid added, and the plates counted in a Trilux.
as §6

[7] = molecular target: hSERT (Homo sapiens (Human), UniProt P31645); assay: SERT radioligand binding assay ([125I]RTI-55, HEK-293 membranes); conditions: (+)-enantiomers; read-out: SERT IC50
Protocol: as §5, with “The” for “Recombinant HEK-293 cells expressing either the hSERT, hDAT, or hNET proteins were harvested from T-175 flasks as follows. The”
as §7, with “0.4” for “1.0”, “100% inhibition is defined with 1.0 μl/well of 10 mM desipramine dissolved in DMSO. 50 μl/well of a 2× membrane preparation (0.4 mg/ml in 50 mM Tris-Cl, pH 7.5, 120 mM NaCl, 5 mM KCl) and 50 μl/well of a 2× radioligand solution (4 nM [^3H]nisoxetine in 50 mM Tris-Cl, pH 7.5, 120 mM NaCl, 5 mM KCl) were added to the well and the reaction incubated for 1 hour at room temperature.” left out
as §6, with “Each” for “The raw data was normalized to percent inhibition using control wells defining 0% (DMSO only) and 100% (selective inhibitor) inhibition which were run on each plate. Each”

hSERT, sequence (P31645 whole entry): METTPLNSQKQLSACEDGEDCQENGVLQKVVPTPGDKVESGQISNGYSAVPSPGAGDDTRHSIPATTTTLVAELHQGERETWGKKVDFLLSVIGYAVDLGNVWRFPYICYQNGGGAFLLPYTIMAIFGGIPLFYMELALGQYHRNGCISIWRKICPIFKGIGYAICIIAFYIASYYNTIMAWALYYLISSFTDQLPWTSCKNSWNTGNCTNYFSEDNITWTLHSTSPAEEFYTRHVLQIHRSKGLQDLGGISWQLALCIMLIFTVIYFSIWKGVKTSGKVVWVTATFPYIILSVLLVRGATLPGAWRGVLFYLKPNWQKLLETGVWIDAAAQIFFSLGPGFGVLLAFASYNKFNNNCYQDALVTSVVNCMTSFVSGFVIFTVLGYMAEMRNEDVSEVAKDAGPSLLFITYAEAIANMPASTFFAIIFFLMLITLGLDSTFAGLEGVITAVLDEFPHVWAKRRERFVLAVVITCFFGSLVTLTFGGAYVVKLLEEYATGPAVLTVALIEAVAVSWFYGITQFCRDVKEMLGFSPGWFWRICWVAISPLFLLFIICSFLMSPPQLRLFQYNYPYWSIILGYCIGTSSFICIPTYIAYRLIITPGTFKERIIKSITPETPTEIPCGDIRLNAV
hDAT, sequence (Q01959 whole entry): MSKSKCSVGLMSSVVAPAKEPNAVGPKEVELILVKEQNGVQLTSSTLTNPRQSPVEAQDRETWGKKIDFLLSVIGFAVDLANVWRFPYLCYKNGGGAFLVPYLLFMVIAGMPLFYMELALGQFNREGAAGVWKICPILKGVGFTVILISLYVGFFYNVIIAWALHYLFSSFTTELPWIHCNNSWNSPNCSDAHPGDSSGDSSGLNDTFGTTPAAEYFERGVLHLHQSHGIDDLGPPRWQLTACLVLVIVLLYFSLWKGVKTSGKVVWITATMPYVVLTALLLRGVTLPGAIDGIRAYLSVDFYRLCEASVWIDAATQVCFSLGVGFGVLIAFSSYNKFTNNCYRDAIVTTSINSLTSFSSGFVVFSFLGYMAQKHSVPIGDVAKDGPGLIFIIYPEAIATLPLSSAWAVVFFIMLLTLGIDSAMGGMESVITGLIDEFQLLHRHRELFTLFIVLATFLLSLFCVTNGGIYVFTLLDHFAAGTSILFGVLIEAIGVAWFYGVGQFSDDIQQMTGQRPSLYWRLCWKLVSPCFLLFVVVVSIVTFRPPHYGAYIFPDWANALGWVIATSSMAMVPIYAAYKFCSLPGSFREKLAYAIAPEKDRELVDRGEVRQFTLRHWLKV
hNET, sequence (P23975 whole entry): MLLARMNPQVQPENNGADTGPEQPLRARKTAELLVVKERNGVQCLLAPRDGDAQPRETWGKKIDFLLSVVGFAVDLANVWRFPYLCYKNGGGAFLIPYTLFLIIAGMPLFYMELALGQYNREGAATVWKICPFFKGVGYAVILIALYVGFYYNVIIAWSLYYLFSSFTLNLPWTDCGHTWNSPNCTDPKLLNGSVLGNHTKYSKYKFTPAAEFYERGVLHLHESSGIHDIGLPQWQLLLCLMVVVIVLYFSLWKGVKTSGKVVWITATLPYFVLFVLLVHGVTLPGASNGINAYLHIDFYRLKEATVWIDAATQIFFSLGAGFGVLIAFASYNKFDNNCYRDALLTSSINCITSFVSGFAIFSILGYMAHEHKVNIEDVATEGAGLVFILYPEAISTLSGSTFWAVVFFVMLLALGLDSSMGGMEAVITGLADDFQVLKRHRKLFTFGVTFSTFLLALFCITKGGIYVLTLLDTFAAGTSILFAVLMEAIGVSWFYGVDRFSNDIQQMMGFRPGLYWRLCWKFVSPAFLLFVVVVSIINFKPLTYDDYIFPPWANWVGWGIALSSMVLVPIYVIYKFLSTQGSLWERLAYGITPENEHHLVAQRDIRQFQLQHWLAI

| SMILES | minimum effective dose [1] | SERT Occupancy % [2] | DAT Occupancy % [3] | NET Occupancy % [4] | pIC50 [5] | pIC50 [6] | pIC50 [7] |
| --- | --- | --- | --- | --- | --- | --- | --- |
| Clc1ccc(C2CNCc3cc(-c4ccc5ncnn5c4)ccc32)cc1Cl (stereo not shown) [Example 36, 7-([1,2,4]triazolo[1,5-a]pyridin-6-yl)-4-(3,4-dichlorophenyl)-1,2,3,4-tetrahydroisoquinoline] | 10 mg/kg | 75% | 26% | 11% |  |  |  |
| Fc1cc2c(cc1-c1ccc3ncnn3c1)CNCC2c1ccc(Cl)c(Cl)c1 (single isomer, unassigned; (+)) [Example 39, (+)-7-([1,2,4]triazolo[1,5-a]pyridin-6-yl)-4-(3,4-dichlorophenyl)-6-fluoro-1,2,3,4-tetrahydroisoquinoline] |  |  |  |  | 7.08 | 7.15 | 7.85 |
| FC(F)(F)c1ccc(-c2ccc3c(c2)CNCC3c2ccc(Cl)c(Cl)c2)nn1 (stereo not shown) [Example 11, 4-(3,4-dichlorophenyl)-7-(6-(trifluoromethyl)pyridazin-3-yl)-1,2,3,4-tetrahydroisoquinoline] |  |  |  |  | 7.10 | 7.89 | 8.00 |
| O=c1ccc(-c2cc3c(cc2F)C(c2ccc(Cl)c(Cl)c2)CNC3)n[nH]1 (stereo not shown) [Example 22, 6-(4-(3,4-dichlorophenyl)-6-fluoro-1,2,3,4-tetrahydroisoquinolin-7-yl)pyridazin-3(2H)-one] |  |  |  |  | 7.43 | 7.20 | 7.41 |
| Cc1ccc(C2CCNc3cc(-c4ccc(C)nn4)ccc32)cc1 (stereo not shown) [Example 1, 7-(6-methylpridazin-3-yl)-4-p-tolyl-1,2,3,4-tetrahydroquinoline] |  |  |  |  | 7.19 | 6.76 | 7.55 |
